{"source": "patent US20200255884A1", "about": "“METHOD OF DETECTION OF DNA END(S) AND ITS USE” (INTODNA SP. Z O.O., priority 2017, published 2020)", "test_system": "HeLa 21-4 cells", "assay": "DNA ends detection in fixed HeLa cells subjected to damaging agents (H2O2, Tpt), Procedure 1", "format": "cell-based", "conditions": "30 min at 37 °C, H2O2 4 mM, Tpt 20 μM", "method": "Procedure: • 1. Pre-preparation (optional): • Incubation of live cells with 0.5-10 mM Tris (5 min-1 h at room temperature (RT)), cells should be monitored for morphological abnormalities. • 2. Fixation and permeabilization: • a. Incubation with 1%-4% formaldehyde solution, 10-15 min, 4° C. (optional) • b. Incubation with an […] detergent (e.g. Triton X-100 (0.25-3%) 10 min-1 h, RT. (optional) • c. Incubation in 70% ethanol in water, 1 h minimum but preferred 12-18 h, −20° C., sample should be stable for several months. (optional but most preferred) • 3. Pre-blocking (optional): • a. Wash (PBS 1×5 min) • b. Streptavidin solution—incubation performed on a droplet, 30 min, RT • c. Wash (PBS 3×5 min) • d. Biotin solution—incubation performed on a droplet, 30 min, RT • e. Wash (PBS 3×5 min) • 4. Increasing accessibility of DNA ends: • Incubation with 0.5-10 mM EDTA in water, 10 min-1 h, RT. • 5. Incorporation procedure: • Incorporation of unmodified and modified nucleotides (e.g. BrdU) using terminal deoxynucleotidyl transferase: • a. incubation is performed on a droplet in a humid chamber • b. samples are rinsed in wash buffers • 6. Blocking: • Incubation with 1-5% BSA solution in PBS (from 1 h to overnight in 4° C., RT). • 7. Incubation with primary antibodies—performed on a droplet in a humid chamber: • a. primary antibodies type 1 (e.g. mouse monoclonal against BrdU), preferred dilution 1:100 in 1-5% BSA, 1 h, RT • b. wash (PBS 3×5 min) • c. primary antibodies type 2 (e.g. rabbit polyclonal against BrdU), preferred dilution 1:100 in 1-5% BSA, 1 h, RT • d. wash (PBS 3×5 min) • 8. PLA procedure: • a. incubation with PLA Probes diluted in 1% BSA (37° C., 60 min, reaction on a droplet, in a humid chamber) in 40 μl of the reaction mixture per one coverslip: • 8 μl of PLA Probe MINUS stock (e.g. anti-mouse) • 8 μl of PLA Probe PLUS stock (e.g. anti-rabbit) • 24 μl of 1% BSA • b. wash samples with Wash Buffer A (2×5 min) • c. ligation—incubation (37° C., 30 min, reaction on a droplet, in a humid chamber) in 40 μl of the reaction mixture per one coverslip: • 8 μl of 5× Ligation stock (Sigma, Duolink, DUO82009), • 31 μl of ultrapure, RNAse/DNAse free, distilled water, • 1 μl of Ligase (1 U/μl) (Sigma, Duolink, DUO82027 or DUO82029) • d. wash samples with Wash Buffer A (2×2 min) • e. amplification—incubation (37° C., 100 min, reaction performed on a droplet, in a humid chamber) in 40 μl of the reaction mixture per one coverslip: • 8 μl of 5× Amplification stock (Sigma, Duolink, DUO82060 or DUO82011), • 31.5 μl of ultrapure, RNAse/DNAse free, distilled water, • 0.5 μl of Polymerase (10 U/μl) (Sigma, Duolink, DUO82028 or DUO82030) • 9. Imaging of samples in PBS using a fluorescence microscope. […]"}
{"smiles": "OO", "note": "[H2O2]", "values": [{"measurement": "percentage of cells that show signs of heavy DNA damage (apoptotic cells) in the population", "setting": "untreated less than 5%", "result": "approximately 30%"}, {"measurement": "average number of detectable regions of incorporation of BrdU (free ends of DNA) per cell", "setting": "± standard error of the mean", "result": "31.57±8.61"}]}
